Laboratory results from PMC9442914, “Antidiabetic potential of Lysiphyllum strychnifolium (Craib) A. Schmitz compounds in human intestinal epithelial Caco-2 cells and molecular docking-based approaches” (BMC Complementary Medicine and Therapies, 2022).
“Also recorded” adds a separate entry of the source.

Key:
ABTS scavenging assay = conditions: mean ± SEM
[1] = DPPH radical scavenging assay; conditions: mean ± SEM
Method: The method by Kumar, Sanjiv et al. was adopted for DPPH (2,2-diphenyl-1-picrylhydrazyl) assays with slight modifications. Briefly, DPPH solution (100 µl) and extract solution (100 µl) were added to a 96-well microplate and thoroughly mixed. The absorbance was measured at 517 nm after a 30-minute incubation time at room temperature.

SGLT1 mRNA = assay: Transcription of SGLT1 mRNA in Caco-2 cells (RT-PCR); format: cell-based, human; conditions: 62.50 µg/ml, normalized to GAPDH
Method: (§1) RNA was extracted from Caco-2 cells using an RNA extraction kit (QIAGEN, Hilden, Germany). Reverse transcription was performed with SuperScript III Reverse Transcriptionase (Thermo Fisher Scientific, Waltham, USA). cDNA was synthesized from 2 µg of total RNA according to the manufacturer’s instructions. Then, the cDNA was maintained at − 20°C for further analysis by real-time PCR. The specific primers used in the experiment were as follows: SGLT1, 5’-[…]-3’ (forward) and 3’-[…]-5’ (reverse); GLUT2, 5’-[…]-3’ (forward) and 3’-[…]-5’ (reverse); GLUT5, 5’- […]-3’ (forward) and 3’-[…]-5’ (reverse). All conditions were performed in triplicate with 3 independent experiments. The real-time qPCR mixture (10 µL) comprised 1 µL of DNA polymerase, template DNA (25 ng), 1 µL of DEPC, and 1.2 µL of forward and reverse primers. Thermal cycling (Applied Biosystems, Waltham, USA) consisted of (denaturation 95 °C for 20 s, annealing 63.3 °C for 30 s, and extension 72 °C for 20 s, 40 cycles. The gene expression data were normalized to the internal control gene GAPDH and then compared using comparative delta-delta Ct.

GLUT2 mRNA = assay: Transcription of GLUT2 mRNA in Caco-2 cells (RT-PCR); format: cell-based, human; conditions: 62.50 µg/ml, normalized to GAPDH
Method: as §1

GLUT5 mRNA = assay: Transcription of GLUT5 mRNA in Caco-2 cells (RT-PCR); format: cell-based, human; conditions: 62.50 µg/ml, normalized to GAPDH
Method: as §1

Caco-2 cells = assay: Cell viability assay (MTT) in Caco-2 cells; format: cell-based, human; conditions: concentrations from 0 to 62.50 ug/ml, 24 h
Method: (§2) Caco-2 cells were obtained from the American Type Culture Collection (ATCC). The cells were cultured in DMEM with 10% FBS and 1% penicillin–streptomycin solution and were maintained at 37 °C in a humidified environment of 95% air and 5% CO2. For the viability test, the Caco-2 cells were seeded on 96-well plates, and 24-well Transwell plates were used to determine α-glucosidase inhibition. […] Fresh media was supplied to the cells every two days during this period.
Caco-2 cells were obtained from the American Type Culture Collection (ATCC). The cells were grown in complete medium (DMEM with 10% FBS, 100 units/mL penicillin, and 100 µg/mL streptomycin) and plated at a density of 10,000 cells per well in 96-well plates for 21 days. Then, the cells were treated with extracts at concentrations ranging from […] for another 24 h. DMSO (0.1%) was added to the control group. The MTT test was used to measure cell viability after treatment. In a 96-well plate, 100 µl of MTT at a concentration of 0.5 mg/ml was applied to each well. The MTT solution was withdrawn after 3 h of incubation at 37 °C, and formazan crystals were dissolved in 100 µl of DMSO. At 570 nm, the purple color that was generated was detected spectrophotometrically (with a reference OD of 690). Prism 6 software was used to calculate cell viability. The appropriate concentration of extracts was chosen for future experiments.

[2] = system: α-glucosidase in Caco-2 cells; assay: Inhibition of α-glucosidase activity in Caco-2 cell monolayer; format: cell-based, human; conditions: apical side of Caco-2 monolayer; 31.25 and 62.50 ug/ml tested, concentration of the values not given
Method: as §2
Caco-2 cells were seeded in 24-transwell plates at a density of 10,000 cells per well for 21 days. The cells were washed in 1X PBS after the culture media was removed. […] At the same time, the lower chamber was filled with glucose-free medium (500 µl). Then, 50 µl of culture media from the upper chamber was taken and measured by the glucose oxidase method.

## O=C1O[C@H]([C@@H](O)CO)C(O)=C1O [Ascorbic acid, ascorbic acid, reference compound]
ABTS scavenging assay
  EC50: 25.1 ± 0.19 µM
[1]
  EC50: 30.38 ± 0.18 µM

## C[C@H]1O[C@H](O[C@H]2[C@H](O)[C@@H](O)[C@@H](O[C@H]3[C@H](O)[C@@H](O)C(O)O[C@@H]3CO)O[C@@H]2CO)[C@H](O)[C@@H](O)[C@@H]1N[C@H]1C=C(CO)[C@@H](O)[C@H](O)[C@H]1O (stereo partly drawn) [Acarbose, acarbose, reference compound]
SGLT1 mRNA
  Transcription of SGLT1 gene (mRNA): downregulated
GLUT2 mRNA
  Transcription of GLUT2 gene (mRNA): downregulated
GLUT5 mRNA
  Transcription of GLUT5 gene (mRNA): downregulated

## C[C@@H]1O[C@@H](Oc2coc3cc(O)cc(O)c3c2=O)[C@H](O)[C@H](O)[C@H]1O [Compound 1, 3,5,7-trihydroxychromone-3-O-α-L-rhamnopyranoside]
ABTS scavenging assay
  EC50: 10.3 ± 0.2 µM
[1]
  EC50: 5.22 ± 0.2 µM
Caco-2 cells
  Cytotoxicity to Caco-2 cells (MTT): without cytotoxicity; also recorded: not cytotoxic
[2]
  α-glucosidase activity compared with untreated cells: 59.75%
SGLT1 mRNA
  Transcription of SGLT1 gene (mRNA): downregulated
GLUT2 mRNA
  Transcription of GLUT2 gene (mRNA): downregulated
GLUT5 mRNA
  Transcription of GLUT5 gene (mRNA): downregulated
